Data on one molecule can be found in ChEMBL document CHEMBL6103652, “Niacin Ester Derivative of Brefeldin A as a Potential Dual-Target Arf1/BMX Inhibitor for Bladder Cancer” (J Nat Prod, 2025).

Each structure is given as a SMILES string. In brackets after ≈: the same amount, converted by molar mass.

Data set [1] is described as follows: Solubility of the compound in PEG400. Type of data set: physicochemical.
The nature of data set [2]: Solubility of the compound in 5% saline and 50% PEG400. It counts as physicochemical.
The test system of data set [3] is T-24. In words: Antiproliferative activity against human T24 cells assessed as inhibition of cell proliferation measured after 72 hrs by MTT assay. It counts as functional, cell-based. The note with it: T-24, 72 h.
Data set [4] can be described thus: Downregulation of AKT expression level in human T24 cells at 0.13 to 0.50 uM incubated for 24 hrs by Western blotting analysis relative to control. It counts as functional, T-24. To be noted: dose 0.13-0.5 µM, at 0.13 to 0.5 µM.
Data set [5] concerns T-24. Put plainly: Induction in apoptosis in human T24 cells assessed as late apoptotic cells at 0.5 uM incubated for 48 hrs by Annexin V-FITC staining based flow cytometry analysis (reference value: 4.78 %). It counts as functional.
A short description of data set [6]: Selectivity index, ratio of IC50 for cytotoxicity against human LO2 cells to IC50 for antiproliferative activity against human T24 cells. It counts as toxicity, cell-based. The note with it: LO2 cells and T24 cells, read-out: Ratio IC50.
In data set [7] the test system is T-24. Put plainly: Induction in apoptosis in human T24 cells assessed as necrotic cells at 0.25 uM incubated for 48 hrs by Annexin V-FITC staining based flow cytometry analysis (reference value: 1.14 %). It counts as functional.
Data set [8] relates to T-24. In words: Induction of cell cycle arrest in human T24 cells assessed as accumulation of cells at G2/M phase at 0.50 uM incubated for 24 hrs by RNase A/Propidium Iodide staining based flow cytometry analysis (reference value: 22.67 %). Type of data set: functional. The note with it: dose 0.5 µM.
For data set [9], the system named is T-24. Put plainly: Induction in apoptosis in human T24 cells assessed as late apoptotic cells at 0.13 uM incubated for 48 hrs by Annexin V-FITC staining based flow cytometry analysis (reference value: 4.78 %). It counts as functional.
Data set [10] is described as follows: Downregulation of p-STAT3 expression level in human T24 cells at 0.5 uM incubated for 24 hrs by Western blotting analysis relative to control. It counts as functional, T-24.
A short description of data set [11]: Antitumor activity against mouse MB49 cells implanted in male C57BL/6 mouse assessed as reduction in Ki67 expression level at 1 mg/kg,iv bid measured after 14 days by immunohistochemical analysis relative to control. Type of data set: functional. Details: scale not given: the % may be the effect or the level left. To be noted: time 14 day.
The nature of data set [12]: Toxicity in male C57BL/6 mouse allografted with mouse MB49 cells assessed as tumor cell apoptosis at 1 mg/kg,iv bid measured after 14 days by H and E staining based analysis. Type of data set: organism-based. To be noted: in vivo, 336 h, time 14 day.
Data set [13] concerns T24. Put plainly: Inhibition of AKT phosphorylation in human T24 cells incubated for 24 hrs by Western blotting analysis. It counts as cell-based. The note with it: dose 0.13-0.5 µM.
The nature of data set [14]: Volume of distribution at steady state in Sprague-Dawley rat at 5 mg/kg, iv measured upto 24 hrs. To be noted: in vivo, read-out: Vdss. It counts as ADME, organism-based.
Data set [15] deals with Signal transducer and activator of transcription 3 (Homo sapiens) (UniProt P40763). Put plainly: Inhibition of STAT3 phosphorylation in human T24 cells incubated for 24 hrs by Western blotting analysis. Type of data set: cell-based. The note with it: dose 0.13-0.5 µM.
Chain of Signal transducer and activator of transcription 3 (Homo sapiens) (P40763 whole entry): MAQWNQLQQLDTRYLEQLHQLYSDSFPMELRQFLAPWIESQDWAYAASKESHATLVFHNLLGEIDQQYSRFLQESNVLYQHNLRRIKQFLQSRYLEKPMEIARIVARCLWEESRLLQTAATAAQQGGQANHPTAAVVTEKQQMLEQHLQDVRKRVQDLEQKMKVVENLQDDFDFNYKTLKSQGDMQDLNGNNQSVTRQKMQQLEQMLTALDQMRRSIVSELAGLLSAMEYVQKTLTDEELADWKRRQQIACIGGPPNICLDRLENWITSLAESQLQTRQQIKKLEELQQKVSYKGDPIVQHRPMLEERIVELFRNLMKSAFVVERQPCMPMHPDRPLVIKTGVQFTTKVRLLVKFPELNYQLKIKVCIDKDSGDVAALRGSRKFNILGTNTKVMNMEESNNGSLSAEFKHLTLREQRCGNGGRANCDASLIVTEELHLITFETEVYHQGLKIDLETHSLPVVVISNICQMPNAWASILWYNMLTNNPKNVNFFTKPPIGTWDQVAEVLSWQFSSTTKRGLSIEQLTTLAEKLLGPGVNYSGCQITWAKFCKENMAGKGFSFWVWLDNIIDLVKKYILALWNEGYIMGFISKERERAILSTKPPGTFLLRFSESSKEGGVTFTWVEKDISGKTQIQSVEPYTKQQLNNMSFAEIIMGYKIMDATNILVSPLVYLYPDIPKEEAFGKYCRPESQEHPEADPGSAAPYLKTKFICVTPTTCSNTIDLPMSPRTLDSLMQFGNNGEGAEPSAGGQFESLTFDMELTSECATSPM
Data set [16] has as its system T-24. Put plainly: Induction of cell cycle arrest in human T24 cells assessed as accumulation of cells at G1 phase at 0.13 uM incubated for 24 hrs by RNase A/Propidium Iodide staining based flow cytometry analysis (reference value: 43.80 %). It counts as functional.
In data set [17] the test system is T-24. In words: Induction in apoptosis in human T24 cells assessed as viable cells at 0.25 uM incubated for 48 hrs by Annexin V-FITC staining based flow cytometry analysis (reference value: 90.44 %). It counts as functional. The note with it: read-out: Activity.

For `C[C@H]1CCC/C=C/[C@@H]2C[C@H](O)C[C@H]2[C@H](OC(=O)c2cccnc2)/C=C/C(=O)O1`, the solubility entry was “Not_active” in data set [1] and 5 mg/mL (≈ 13 mM) in [2]. The IC50 in data set [3] worked out at 0.22 µM. Further, the Activity in [4] came out at 62%; in [5], 24.81%; in data set [7] it was 3.33%; in [8] it was 14.82%; in data set [9] it was 4.41%; in data set [10], 55%. For the same molecule, the Activity in [11] was 56%; in [12] it was “Non-toxic”; in data set [16], 47.36%. The selectivity ratio in [6] was 3.59. Moreover, the inhibition entry in [13] and in [15] was “Dose-dependent-effect” each time. Further, the Vd in [14] is 0.59 L/kg. Moreover, the viability at 0.25 µM in data set [17] amounted to 66.9%.
